In patent publication US8338151B2, “Method for creating intracellular artificial nanostructures in situ” (The Hong Kong University of Science and Technology, priority 2005, dated 2012):

Assay: Minimum gelation concentration / hydrogelation ability
Type: physicochemical
From the text: In this embodiment, precursors bearing the general formula C10H7CH2C(O)—ZZ (where Z is the residue of an amino acid) was used.
For this precursor, it is possible to use the enzyme kinase/phosphatase pair as an enzyme switch because (i) FF is prone to self-assembly (ii) Nap-FF gels water effectively (at 0.8 wt %), and (iii) the residue of Glu-Tyr (EY) accepts phosphorylation in the presence of a tyrosine kinase and the phosphorylation process can be reversed by phosphatase.
One of the motivations to use naphthalene (Nap) rather than N-(fluorenyl-methoxycarbonyl) (FMOC) is that Nap should be more biocompatible, as evidenced by several clinical drugs consisting of a Nap motif (i. e., propranolol, naphazoline, nafronyl). The glycine (G) was used to connect Nap-FF with EY because glycine is the simplest amino acid. Unlike other pentapeptides, FFGEY is not a known epitope of any protein, but it carries the basic structural requirement to serve as the substrate of the tyrosine kinase. After obtaining precursor IIIa through solid-phase synthesis, the hydrogelation ability of IIIa was tested. Via a slight adjustment of pH (from 7.8 to 7.5), IIIa forms a transparent hydrogel in water at 0.6 wt %). The successful hydrogelation of IIIa implies that Nap-FF also may act as a useful motif to conjugate with other amino acid residues to construct hydrogelators. […]

With O=C(Cc1ccc2ccccc2c1)N[C@@H](Cc1ccccc1)C(=O)N[C@@H](Cc1ccccc1)C(=O)O [C10H7CH2C(O)-L-Phe-L-Phe] the “minimum gelation concentration (mgc)” value was “ca. 0.4%” and the “concentration at which a hydrogel forms in water” value (water) was 0.8 wt %.
